Our source for the TGI and GI50 values is PubChem BioAssay (NCI).

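In this assay, cells in 96-well plates receive the compound at five concentrations for 48 hours. Endpoints are linearly interpolated between the surrounding concentrations. Here, GI50 denotes the concentration required for 50% inhibition of growth. Definition used: TGI = concentration required for complete inhibition of growth.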

One assay concerns K-562 leukemia. In words: NCI anticancer screen, dose series, 48 h.
Compound `CC(=O)N/N=C1\NC(=O)C[C@H]2[C@@H]3CC=C4C[C@@H](OC(C)=O)CC[C@]4(C)[C@H]3CC[C@]12C` gave a TGI above 100 µM.

`C=C[C@@H]1C(CO)=CCC2[C@H]1CCC1C(C)(C)C(=O)CC[C@]21C` (some centres undefined) returned a TGI above 100 µM.

In the case of `COc1ccc2cc3c4cc5c(cc4cc[n+]3cc2c1OC)OCO5`, the TGI is above 100 µM.

On to `CCN(CCO)CC1COc2ccccc2O1` (centres undefined), for which the TGI was above 100 µM.

In turn, `O=c1oc(-c2ccc(O)c(O)c2)cc2cccc(O)c12` had a TGI of 49.2 µM.

On to `C=CCNC(=S)/N=C/c1c(O)c2ccccc2oc1=O`, for which the TGI is above 100 µM.

The compound `O=C(NCCCN(CCCCN(CCCNC(=O)C(F)(F)F)Cc1ccccc1)Cc1ccccc1)C(F)(F)F` had a TGI of 30.6 µM.

Compound `CC(=O)N(C(C)=O)C1=C2c3ccccc3N(S(=O)(=O)c3ccccc3)C2n2c(=O)n(-c3ccccc3)c(=O)n2C1` (centres undefined) returned a TGI above 100 µM.

`Clc1ccc(-c2nn3c(-c4ccncc4)nnc3s2)cc1` gave a TGI above 100 µM.

`O=C1/C(=C\c2cccc(Oc3ccccc3)c2)S(=O)(=O)C(c2ccccc2)N1Cc1ccccc1` (centres undefined) came in with a TGI above 100 µM.

The compound `O=C(NC(Cc1ccc(I)cc1)C(=O)O)c1ccc(I)cc1` (centres undefined) came in with a TGI above 100 µM.

`O=[N+]([O-])/C(C(Cl)=C(Cl)Cl)=C(\Nc1cccc2cccnc12)SCc1ccccc1` registered a TGI of 56.9 µM.

As for `C(=N\NC1=NCCCN1)/c1ccc2ccccc2c1`, the TGI came out at 12.6 µM.

In turn, `O=C(NCCN1CCOCC1)c1ccc2cc(C(=O)N3CC(CCl)c4ccc([N+](=O)[O-])cc43)[nH]c2c1` (centres undefined) showed a TGI above 100 µM.

Consider `O=c1ccc2cc3ccc4cccc5ccc(c2o1)c3c45`, for which the TGI was above 100 µM.

The compound `O=S(=O)(O)c1cc2ccc1/C=C\c1ccc(cc1S(=O)(=O)O)N=Nc1ccc(c(S(=O)(=O)O)c1)/C=C\c1ccc(cc1S(=O)(=O)O)N=N2` yielded a TGI above 100 µM.

`COc1ccc(CC(O)CN2CCOCC2)cc1` (centres undefined) yielded a TGI above 100 µM.

Take `COc1cc(C2SCC(=O)N2c2ccc(NC(=O)c3ccc(N4C(=O)CSC4c4cc(OC)c(OC)c(OC)c4)cc3)cc2)cc(OC)c1OC` (centres undefined): the TGI is above 100 µM.

In a further assay the test system is MALME-3M melanoma. Nature of the assay: NCI anticancer screen, dose series, 48 h.
Turning to `CS(=O)(=O)OCCn1c(=O)n(CCOS(C)(=O)=O)c(=O)n(CCOS(C)(=O)=O)c1=O`, the TGI was above 100 µM.

Turning to `CC(=O)O[C@]12CCCCCC1C1(O)C(O)CCC[C@H]12` (some centres undefined), the TGI was above 100 µM.

`COCOc1ccc(Cn2c(=O)n(C)c(=O)c3c2ncn3C)cc1[N+](=O)[O-]`: the TGI is above 100 µM.

Compound `COC(=O)[C@]12CC[C@H]3CN(C(=O)OCc4ccccc4)[C@H]([C@H]31)[C@H](c1ccco1)N2S(=O)(=O)c1ccc(C)cc1` came in with a TGI of 38.3 µM.

For the compound `CSc1c(C#N)c(N)n2c1C(=O)N(c1ccccc1)C2=S`, the TGI was above 100 µM.

The compound `N#CCCN(CCC#N)c1ccc(/C=C2\N=C(c3ccccc3)N(c3ccc(Cl)cc3)C2=O)cc1` gave a TGI above 100 µM.

The compound `BrC/C=C/C[P+](c1ccccc1)(c1ccccc1)c1ccccc1` showed a TGI above 100 µM.

In turn, `NNC(=O)c1ccc[n+](CCc2ccccc2)c1` yielded a TGI above 100 µM.

As to `Cc1cc(=O)c2c([nH]1)NS(=O)(=O)NC2=O`, the TGI is above 100 µM.

As to `CC(=O)N/N=C1\NC(=O)C[C@H]2[C@@H]3CC=C4C[C@@H](OC(C)=O)CC[C@]4(C)[C@H]3CC[C@]12C`, the TGI is above 100 µM.

In turn, `C=C[C@@H]1C(CO)=CCC2[C@H]1CCC1C(C)(C)C(=O)CC[C@]21C` (some centres undefined) registered a TGI above 100 µM.

As for `COc1ccc2cc3c4cc5c(cc4cc[n+]3cc2c1OC)OCO5`, the TGI turned out to be 15.1 µM.

On to `CCN(CCO)CC1COc2ccccc2O1` (centres undefined), for which the TGI was above 100 µM.

On to `O=c1oc(-c2ccc(O)c(O)c2)cc2cccc(O)c12`, for which the TGI was above 86.5 µM.

With `C=CCNC(=S)/N=C/c1c(O)c2ccccc2oc1=O`, the TGI came to 96 µM.

Consider `O=C(NCCCN(CCCCN(CCCNC(=O)C(F)(F)F)Cc1ccccc1)Cc1ccccc1)C(F)(F)F`, for which the TGI was 28.4 µM.

Take `CC(=O)N(C(C)=O)C1=C2c3ccccc3N(S(=O)(=O)c3ccccc3)C2n2c(=O)n(-c3ccccc3)c(=O)n2C1` (centres undefined): the TGI worked out at 46.5 µM.

The compound `Clc1ccc(-c2nn3c(-c4ccncc4)nnc3s2)cc1` yielded a TGI above 100 µM.

In the case of `O=C1/C(=C\c2cccc(Oc3ccccc3)c2)S(=O)(=O)C(c2ccccc2)N1Cc1ccccc1` (centres undefined), the TGI worked out at 37.8 µM.

As for `O=C(NC(Cc1ccc(I)cc1)C(=O)O)c1ccc(I)cc1` (centres undefined), the TGI was above 100 µM.

Regarding `O=[N+]([O-])/C(C(Cl)=C(Cl)Cl)=C(\Nc1cccc2cccnc12)SCc1ccccc1`, the TGI came to 28.9 µM.

As to `C(=N\NC1=NCCCN1)/c1ccc2ccccc2c1`, the TGI is 33.2 µM.

`Cc1cc2[nH]c3[nH]c(=O)[nH]c(=O)c3c2cc1C` came in with a TGI above 100 µM.

In the case of `O=c1ccc2cc3ccc4cccc5ccc(c2o1)c3c45`, the TGI was above 100 µM.

Compound `O=S(=O)(O)c1cc2ccc1/C=C\c1ccc(cc1S(=O)(=O)O)N=Nc1ccc(c(S(=O)(=O)O)c1)/C=C\c1ccc(cc1S(=O)(=O)O)N=N2` yielded a TGI above 100 µM.

The compound `COc1ccc(CC(O)CN2CCOCC2)cc1` (centres undefined) gave a TGI above 100 µM.

Compound `COc1cc(C2SCC(=O)N2c2ccc(NC(=O)c3ccc(N4C(=O)CSC4c4cc(OC)c(OC)c(OC)c4)cc3)cc2)cc(OC)c1OC` (centres undefined) displayed a TGI above 100 µM.

The next assay has as its system PC-3 prostate. In words: NCI anticancer screen, dose series, 48 h.
Take `CC(C)(C)NC(=O)/C(=C\Sc1ccccc1)c1ccc2c(c1)OCO2`: the TGI was 73.7 µM.

`COC(=O)[C@]12CC[C@H]3CN(C(=O)OCc4ccccc4)[C@H]([C@H]31)[C@H](c1ccco1)N2S(=O)(=O)c1ccc(C)cc1` gave a TGI above 100 µM.

`CSc1c(C#N)c(N)n2c1C(=O)N(c1ccccc1)C2=S` yielded a TGI above 100 µM.

`N#CCCN(CCC#N)c1ccc(/C=C2\N=C(c3ccccc3)N(c3ccc(Cl)cc3)C2=O)cc1` gave a TGI above 100 µM.

With `NNC(=O)c1ccc[n+](CCc2ccccc2)c1`, the TGI was above 100 µM.

On to `COc1cc(NS(C)(=O)=O)ccc1N1Cc2cnc3ccc4[nH]c(C)cc1c4c23`, for which the TGI was above 100 µM.

Take `COc1cc([N+](=O)[O-])c(OC)cc1-c1nc2sc(Cl)cn2c1/C=N/Nc1ccccn1`: the GI50 is 16.4 µM and the TGI is above 50 µM.

`CC(=O)N/N=C1\NC(=O)C[C@H]2[C@@H]3CC=C4C[C@@H](OC(C)=O)CC[C@]4(C)[C@H]3CC[C@]12C` registered a TGI above 100 µM.

The compound `C=C[C@@H]1C(CO)=CCC2[C@H]1CCC1C(C)(C)C(=O)CC[C@]21C` (some centres undefined) came in with a TGI above 100 µM.

`COc1ccc2cc3c4cc5c(cc4cc[n+]3cc2c1OC)OCO5`: the TGI is above 100 µM.

For the compound `CCN(CCO)CC1COc2ccccc2O1` (centres undefined), the TGI was above 100 µM.

`O=c1oc(-c2ccc(O)c(O)c2)cc2cccc(O)c12`: the TGI is 47.3 µM.

Compound `Clc1ccc(-c2nn3c(-c4ccncc4)nnc3s2)cc1` registered a TGI above 100 µM.

For the compound `O=C1/C(=C\c2cccc(Oc3ccccc3)c2)S(=O)(=O)C(c2ccccc2)N1Cc1ccccc1` (centres undefined), the TGI is above 100 µM.

In the case of `O=[N+]([O-])/C(C(Cl)=C(Cl)Cl)=C(\Nc1cccc2cccnc12)SCc1ccccc1`, the TGI was found to be 36.5 µM.

`C(=N\NC1=NCCCN1)/c1ccc2ccccc2c1` displayed a TGI of 25.5 µM.

For `O=C(NCCN1CCOCC1)c1ccc2cc(C(=O)N3CC(CCl)c4ccc([N+](=O)[O-])cc43)[nH]c2c1` (centres undefined), the TGI was found to be 48.8 µM.

The compound `COc1ccc(CC(O)CN2CCOCC2)cc1` (centres undefined) had a TGI above 100 µM.
